Measurements from patent US11439657B2, “Cancer stem cell growth inhibitor using miRNA” (CancerStem Tech Inc., priority 2017, dated 2022).
Entries after “also recorded” stand apart in the source; their conditions may differ.

Assays:
[1] = tested on: human pancreatic cancer cells (PSN-1 line); test: Antitumor effect on human pancreatic cancer cells (2), cell count after transfection; format: cell-based; conditions: 10 pmol/well, 48 hours, FIG. 9
Experimental: (§1) A cell suspension prepared by suspending human pancreatic cancer cells (Bxpc3 line) in D-MEM medium (containing 10% by volume FBS) was seeded in each well of a 24-well plate at 3×10^3 cells/well, followed by culture at 37° C. overnight. Thereafter, according to the lipofectamin 2000 protocol, each miRNA was transfected at 10 pmol/well, and 48 hours later, the cells were counted. In addition, tests were also conducted under the same condition on a case where the miRNA was not introduced (untreated group), a case where hsa-miR-34a (SEQ ID NO: 8) was used (positive control) in place of the miRNA, and a case where a control miRNA (SEQ ID NO: 9) was used (control miRNA, negative control) in place of the selected miRNA.
As to hsa-miR-136-5p, hsa-miR-3065-3p and hsa-miR-181a-5p, evaluation was performed of the antitumor effect on human pancreatic cancer cells. The specific test method is the same as that for Test Example 4 except that a PSN-1 line was used as human pancreatic cancer cells.

[2] = tested on: solid tumor from the cancer stem cell population (ZsGreen+); test: Mouse subcutaneous solid tumor model test; format: in vivo, BALB/cA nude mice
Experimental: In 100 ml of distilled water, 0.37 g of NaHCO3, 90 μl of NaH2PO4.2H2O (1M) and 180 μl of CaCl2 (1 M) were added in this order and dissolved, and the pH was adjusted to 7.5 with 1N HCl. This was filtered through 0.2 μm diameter filter. Per 1 ml of the resultant buffer, 2 μg of miRNA and 4 μl of CaCl2 (1 M) were mixed and incubated in a water bath at 37° C. for 30 minutes. Then, spin down was performed at 15000 rpm×5 minutes. The resultant pellet was dispersed in physiological saline (containing 0.5 wt % albumin). Accordingly, a dispersion of composite particles containing the miRNA in carbonate apatite particles was obtained. The resultant dispersion was subjected to ultrasonic vibration treatment for 10 minutes just prior to testing. Note that the ultrasonic vibration treatment was performed for 10 minutes using a water bath with an ultrasonic vibration function, in which the dispersion contained in a plastic container was floated on water set to 20° C., under conditions of high frequency output of 55 W and oscillation frequency of 38 kHz. The preparation obtained in this way was immediately used for the tests described below.
Note that it is confirmed in the measurement using a scanning probe microscope that the dispersion of ultrasonic vibration treatment includes composite particles composed of carbonate apatite nanoparticles containing the miRNA having an average particle diameter of 50 nm or less. It is also confirmed that the resultant composite particles contain about 20 μg of the miRNA per 1 mg of carbonate apatite.
The cancer stem cell population (ZsGreen+) obtained in Test Example 1 was subcutaneously injected at 5×10^5 cells to the left and right backs of 6 to 8 weeks age BALB/cA nude mice (manufactured by CLEA Japan, Inc.) to produce solid tumor model mice. When the tumor reached about 20 mm^3 in size, the mice were randomly divided into an hsa-miR-136-5p administration group (hsa-miR-136-5p), an untreated group, and a negative control group (control miRNA). In the hsa-miR-136-5p administration group, the day at which the tumor reached about 20 mm^3 in size was 0th day. On the 0th, 3rd, 5th, 7th, 10th, 12th, 14th, 17th and 19th days, carbonate apatite nanoparticles containing the hsa-miR-136-5p were intravenously injected into the tail vein at 40 μg/dose in terms of the amount of hsa-miR-136-5p. In the negative control group, carbonate apatite nanoparticles containing a control miRNA (SEQ ID NO: 9) were intravenously injected into the tail vein at the same schedule and dose as those for the miRNA136-5p administration group. In the untreated group, no drug was administered. During the test period, the tumor volume on the back of the mouse (longer diameter×shorter diameter×shorter diameter×1/2) was measured over time, and on the 24th day, the tumor was excised from the mice and observed for size, and its weight was measured.
A mouse subcutaneous solid tumor model test was conducted in the same manner as in Test Example 2 except that hsa-miR-3065-3p was used in place of hsa-miR-136-5p.
A mouse subcutaneous solid tumor model test was conducted in the same manner as in Test Example 2 except that hsa-miR-181-5p was used in place of hsa-miR-136-5p.

[3] = tested on: human gastric cancer cells (AGS line); test: Antitumor effect on human gastric cancer cells, cell count after transfection; format: cell-based; conditions: 10 pmol/well, 48 hours, FIG. 10; for antitumor effect: positive control hsa-miR-34a
Experimental: as §1
As to hsa-miR-136-5p, hsa-miR-3065-3p and hsa-miR-181a-5p, evaluation was performed of the antitumor effect on human gastric cancer cells. The specific test method is the same as that for Test Example 4 except that human gastric cancer cells (AGS line) were used as cancer cells.

[4] = tested on: human pancreatic cancer cells (Bxpc3 line); test: Antitumor effect on human pancreatic cancer cells (1), cell count after transfection; format: cell-based; conditions: 10 pmol/well, FIG. 8; for antitumor effect: 48 hours, positive control hsa-miR-34a; for proliferation inhibitory effect on pancreatic cancer cells: cells counted 48 hours later
Experimental: as §1

[5] = tested on: human esophageal cancer cells (TE11 line); test: Antitumor effect on human esophageal cancer cells, cell count after transfection; format: cell-based; conditions: 10 pmol/well, FIG. 12; for antitumor effect: 72 hours, positive control hsa-miR-34a; for proliferation inhibitory effect on esophageal cancer cells: cells counted 72 hours after transfection
Experimental: as §1
(§2) As to hsa-miR-136-5p, hsa-miR-3065-3p, hsa-miR-4727-5p, hsa-miR-378g and hsa-miR-181a-5p, evaluation was performed of the antitumor effect on human esophageal cancer cells. The specific test method is the same as that for Test Example 4 except that human esophageal cancer cells (TE11 line) were used as cancer cells, and that the cells were counted 72 hours after transfection.

[6] = tested on: human large bowel cancer cells (DLD1 line); test: Antitumor effect on human large bowel cancer cells, cell count after transfection; format: cell-based; conditions: 10 pmol/well, FIG. 11; for antitumor effect: 72 hours, positive control hsa-miR-34a; for proliferation inhibitory effect on large bowel cancer cells: cells counted 72 hours after transfection
Experimental: as §1
as §2, with “hsa-miR-378g, hsa-miR-181a-5p, hsa-miR-362-5p” for “hsa-miR-378g”, “hsa-miR-608,” for “hsa-miR-181a-5p,”, “large bowel” for “esophageal”, “(DLD1” for “(TE11”

Substance | antitumor effect [1] | proliferation inhibitory effect on pancreatic cancer cells [1] | tumor excised on the 24th day (size and weight) as compared to the untreated group and the negative control group ([2]; 24th day, carbonate apatite nanoparticles, 40 μg/dose i.v., FIGS. 5b and 5c) | tumor volume as compared to the untreated group and the negative control group ([2]; after the 7th day, carbonate apatite nanoparticles, 40 μg/dose i.v., FIG. 5a) | antitumor effect as compared to the untreated group and the negative control group (control miRNA) ([2]; carbonate apatite nanoparticles containing the miRNA, 40 μg/dose, tail vein i.v., days 0-19, tumor excised on the 24th day) | proliferation inhibitory effect on gastric cancer cells [3] | antitumor effect [3] | antitumor effect [4] | proliferation inhibitory effect on pancreatic cancer cells [4] | antitumor effect [5] | proliferation inhibitory effect on esophageal cancer cells [5] | antitumor effect [6] | proliferation inhibitory effect on large bowel cancer cells [6] | tumor volume as compared to the untreated group and the negative control group ([2]; from the 17th day, carbonate apatite nanoparticles, 40 μg/dose i.v., FIG. 6)
hsa-miR-136-5p: human-derived miR-136-5p; base sequence set forth in SEQ ID NO: 1 as mature miRNA (ACUCCAUUUGUUUUGAUGAUGGA; listed as RNA, chemistry not given here; listed as Homo sapiens) | particularly remarkable antitumor effect | strong proliferation inhibitory effect | significantly smaller | significantly smaller tumor volume | remarkably higher antitumor effect | strong proliferation inhibitory effect | much better antitumor effect than that of hsa-miR-34a; also recorded: particularly remarkable antitumor effect | much better antitumor effect than that of hsa-miR-34a; also recorded: particularly remarkable antitumor effect | strong proliferation inhibitory effect | much better antitumor effect than that of hsa-miR-34a | strong proliferation inhibitory effect | much better antitumor effect than that of hsa-miR-34a; also recorded: particularly remarkable antitumor effect | strong proliferation inhibitory effect | 
hsa-miR-3065-3p: human-derived miR-3065-3p; base sequence set forth in SEQ ID NO: 2 as mature miRNA (UCAGCACCAGGAUAUUGUUGGAG; listed as RNA, chemistry not given here; listed as Homo sapiens) |  | strong proliferation inhibitory effect |  |  |  | strong proliferation inhibitory effect | much better antitumor effect than that of hsa-miR-34a | much better antitumor effect than that of hsa-miR-34a | strong proliferation inhibitory effect | much better antitumor effect than that of hsa-miR-34a; also recorded: particularly remarkable antitumor effect | strong proliferation inhibitory effect | much better antitumor effect than that of hsa-miR-34a; also recorded: particularly remarkable antitumor effect | strong proliferation inhibitory effect | significantly reduced
